Reference: US11155586B2, “Cystine knot scaffold platform” (Genentech, Inc., priority 2015, dated 2021)
Positions of bridges follow the written chain, without caps; N, C: chain ends. Residues, ends and D or L forms follow the SMILES beside them.

Target: T1, hVEGF(8-109) (Homo sapiens, UniProt P15692)
T1 construct: hVEGF(8-109) or BSA were coated on 384-well MAXISORP™ immunoplates
T1 sequence (P15692 214-315): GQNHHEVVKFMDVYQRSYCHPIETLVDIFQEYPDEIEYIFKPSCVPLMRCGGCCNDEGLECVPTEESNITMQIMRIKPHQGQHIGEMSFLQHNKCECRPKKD
Test: Spot phage ELISA
Format: binding
Description: After four rounds of binding selection, individual phage clones were picked and inoculated into 450 μl 2YT media containing 50 µg/ml Carbenecillin and M13-KO7 helper phage in 96-well blocks, which were grown at 37° C. overnight. The supernatant was analyzed with spot phage ELISA as follows: hVEGF(8-109) or BSA were coated on 384-well MAXISORP™ immunoplates and phage supernatant diluted (1:3) with PBT buffer was added to the wells. The plates were washed and bound phage was detected with anti-M13-HRP followed by TMB substrate. In these assays, phage binding to BSA alone was tested in parallel to assess background binding. Clones whose binding signals for hVEGF-A (8-109) were more than 3 times higher than to BSA (background) were considered positive. Positive clones were subjected to DNA sequence analysis.

[1] = VEGF_CKP9 Loop1/Loop5 affinity-matured variants, Table 24
[2] = loop 2 variants based on 9.54 framework, Table 26

SMILES	S/N (signal to noise ratio as compared to BSA control) (Table 24)	ELISA [1]	also measured
CC(C)C[C@@H]1NC(=O)[C@@H]2CSSC[C@@H](C(=O)NCC(=O)O)NC(=O)[C@H](Cc3ccccc3)NC(=O)CNC(=O)[C@H](CC(N)=O)NC(=O)[C@@H]3CCCN3C(=O)CNC(=O)[C@@H]3CSSC[C@H](NC(=O)[C@H](Cc4ccc(O)cc4)NC(=O)[C@H](CCC(N)=O)NC(=O)[C@H](CCCCN)NC(=O)[C@H](Cc4ccccc4)NC(=O)[C@H](CCCNC(=N)N)NC(=O)[C@H]([C@@H](C)O)NC(=O)[C@H]([C@@H](C)O)NC(=O)[C@@H]4CCCN4C(=O)[C@@H](NC(=O)CN)CSSC[C@H](NC(=O)CNC(=O)[C@H](C)NC1=O)C(=O)N[C@@H](C(C)C)C(=O)N3)C(=O)N[C@@H](CCCCN)C(=O)N[C@@H](CCC(N)=O)C(=O)N[C@@H](CC(=O)O)C(=O)N[C@@H](CO)C(=O)N[C@@H](CC(=O)O)C(=O)N2 [VEGF_CKP6] (H-GCPTTRFKQYCKQDSDCLAGCVCGPNGFCG-OH; disulfide 2-21, 11-23, 17-29; N-terminus and C-terminus assumed)	–	–	S/N (signal to noise ratio as compared to BSA control) (Table 19): 51.9; ELISA (spot phage ELISA signal, EETI-II-based binders against hVEGF-A, Table 19): 3.5
CC(C)C[C@@H]1NC(=O)[C@@H]2CSSC[C@H](NC(=O)CNC(=O)[C@H](Cc3c[nH]c4ccccc34)NC(=O)[C@H](Cc3ccccc3)NC(=O)[C@@H]3CCCN3C(=O)[C@H](CCC(N)=O)NC(=O)[C@H](CC(C)C)NC(=O)[C@H](C(C)C)NC(=O)[C@H](CC(=O)O)NC(=O)[C@@H](NC(=O)CN)CSSC[C@@H](C(=O)N[C@H](C(=O)N[C@H]3CSSC[C@@H](C(=O)NCC(=O)O)NC(=O)[C@H](CO)NC(=O)[C@H](CCC(N)=O)NC(=O)[C@H](Cc4ccc(O)cc4)NC(=O)[C@H](Cc4c[nH]c5ccccc45)NC(=O)[C@H](Cc4c[nH]cn4)NC3=O)C(C)C)NC(=O)CNC(=O)[C@H](C)NC1=O)C(=O)N[C@@H](CCCCN)C(=O)N[C@@H](CCC(N)=O)C(=O)N[C@@H](CC(=O)O)C(=O)N[C@@H](CO)C(=O)N[C@@H](CC(=O)O)C(=O)N2 [VEGF_CKP9.2] (H-GCDVLQPFWGCKQDSDCLAGCVCHWYQSCG-OH; disulfide 2-21, 11-17, 23-29 (inferred); N-terminus and C-terminus assumed)	31.1	2.4	–
CC[C@H](C)[C@@H]1NC(=O)[C@H](CCC(N)=O)NC(=O)[C@@H](NC(=O)CN)CSSC[C@@H](C(=O)N[C@H](C(=O)N[C@H]2CSSC[C@@H](C(=O)NCC(=O)O)NC(=O)[C@H](CO)NC(=O)[C@H](CC(N)=O)NC(=O)[C@H](Cc3ccc(O)cc3)NC(=O)[C@H](Cc3ccccc3)NC(=O)[C@H](Cc3c[nH]cn3)NC2=O)C(C)C)NC(=O)CNC(=O)[C@H](C)NC(=O)[C@H](CC(C)C)NC(=O)[C@@H]2CSSC[C@H](NC(=O)CNC(=O)[C@H](Cc3c[nH]c4ccccc34)NC(=O)[C@H](Cc3ccccc3)NC(=O)[C@@H]3CCCN3C(=O)[C@H](CCC(N)=O)NC(=O)[C@H](CO)NC1=O)C(=O)N[C@@H](CCCCN)C(=O)N[C@@H](CCC(N)=O)C(=O)N[C@@H](CC(=O)O)C(=O)N[C@@H](CO)C(=O)N[C@@H](CC(=O)O)C(=O)N2 [VEGF_CKP9.3] (H-GCQISQPFWGCKQDSDCLAGCVCHFYNSCG-OH; disulfide 2-21, 11-17, 23-29 (inferred); N-terminus and C-terminus assumed)	24.5	1.6	–
CC(C)C[C@@H]1NC(=O)[C@@H]2CSSC[C@H](NC(=O)CNC(=O)[C@H](Cc3c[nH]c4ccccc34)NC(=O)[C@H](Cc3ccccc3)NC(=O)[C@@H]3CCCN3C(=O)[C@H](CCC(N)=O)NC(=O)[C@H]([C@@H](C)O)NC(=O)[C@H](CCCNC(=N)N)NC(=O)[C@H](CCC(N)=O)NC(=O)[C@@H](NC(=O)CN)CSSC[C@@H](C(=O)N[C@H](C(=O)N[C@H]3CSSC[C@@H](C(=O)NCC(=O)O)NC(=O)[C@H](CO)NC(=O)[C@H](CCC(N)=O)NC(=O)[C@H](Cc4ccc(O)cc4)NC(=O)[C@H](Cc4c[nH]c5ccccc45)NC(=O)[C@H](CCCNC(=N)N)NC3=O)C(C)C)NC(=O)CNC(=O)[C@H](C)NC1=O)C(=O)N[C@@H](CCCCN)C(=O)N[C@@H](CCC(N)=O)C(=O)N[C@@H](CC(=O)O)C(=O)N[C@@H](CO)C(=O)N[C@@H](CC(=O)O)C(=O)N2 [VEGF_CKP9.22] (H-GCQRTQPFWGCKQDSDCLAGCVCRWYQSCG-OH; disulfide 2-21, 11-17, 23-29 (inferred); N-terminus and C-terminus assumed)	17.2	1.2	–
CC[C@H](C)[C@@H]1NC(=O)[C@H](CC(N)=O)NC(=O)[C@@H](NC(=O)CN)CSSC[C@@H](C(=O)N[C@H](C(=O)N[C@H]2CSSC[C@@H](C(=O)NCC(=O)O)NC(=O)[C@H](CO)NC(=O)[C@H](CCC(N)=O)NC(=O)[C@H](Cc3ccc(O)cc3)NC(=O)[C@H](Cc3ccc(O)cc3)NC(=O)[C@H](CCC(N)=O)NC2=O)C(C)C)NC(=O)CNC(=O)[C@H](C)NC(=O)[C@H](CC(C)C)NC(=O)[C@@H]2CSSC[C@H](NC(=O)CNC(=O)[C@H](Cc3c[nH]c4ccccc34)NC(=O)[C@H](Cc3ccccc3)NC(=O)[C@@H]3CCCN3C(=O)[C@H](CC(C)C)NC(=O)[C@H](CCSC)NC1=O)C(=O)NCC(=O)N[C@@H](CC(C)C)C(=O)N[C@@H](CC(=O)O)C(=O)N[C@@H](Cc1ccc(O)cc1)C(=O)N[C@@H](CC(=O)O)C(=O)N2 [VEGF_CKP9.54.2] (H-GCNIMLPFWGCGLDYDCLAGCVCQYYQSCG-OH; disulfide 2-21, 11-17, 23-29; N-terminus and C-terminus assumed)	–	–	S/N (signal to noise ratio as compared to BSA control) (Table 26): 26; ELISA [2]: 0.1
CC[C@H](C)[C@@H]1NC(=O)[C@H](CC(N)=O)NC(=O)[C@@H](NC(=O)CN)CSSC[C@@H](C(=O)N[C@H](C(=O)N[C@H]2CSSC[C@@H](C(=O)NCC(=O)O)NC(=O)[C@H](CO)NC(=O)[C@H](CCC(N)=O)NC(=O)[C@H](Cc3ccc(O)cc3)NC(=O)[C@H](Cc3ccc(O)cc3)NC(=O)[C@H](CCC(N)=O)NC2=O)C(C)C)NC(=O)CNC(=O)[C@H](C)NC(=O)[C@H](CC(C)C)NC(=O)[C@@H]2CSSC[C@H](NC(=O)CNC(=O)[C@H](Cc3c[nH]c4ccccc34)NC(=O)[C@H](Cc3ccccc3)NC(=O)[C@@H]3CCCN3C(=O)[C@H](CC(C)C)NC(=O)[C@H](CCSC)NC1=O)C(=O)NCC(=O)N1CCC[C@H]1C(=O)N[C@@H](CC(=O)O)C(=O)N[C@@H](CC(C)C)C(=O)N[C@@H](CCC(N)=O)C(=O)N2 [VEGF_CKP9.54.59] (H-GCNIMLPFWGCGPDLQCLAGCVCQYYQSCG-OH; disulfide 2-21, 11-17, 23-29; N-terminus and C-terminus assumed)	–	–	S/N (signal to noise ratio as compared to BSA control) (Table 26): 35.4; ELISA [2]: 2.3
CC(C)C[C@@H]1NC(=O)[C@@H]2CSSC[C@H](NC(=O)CNC(=O)[C@H](Cc3c[nH]c4ccccc34)NC(=O)[C@H](CC(C)C)NC(=O)[C@@H]3CCCN3C(=O)[C@H](CCC(=O)O)NC(=O)[C@H](Cc3ccccc3)NC(=O)[C@H](CC(C)C)NC(=O)[C@H](CCCCN)NC(=O)[C@@H](NC(=O)CN)CSSC[C@@H](C(=O)N[C@H](C(=O)N[C@H]3CSSC[C@@H](C(=O)NCC(=O)O)NC(=O)[C@H](CO)NC(=O)[C@H](CCC(=O)O)NC(=O)[C@H](Cc4ccc(O)cc4)NC(=O)[C@H](Cc4c[nH]c5ccccc45)NC(=O)[C@H](CCCNC(=N)N)NC3=O)C(C)C)NC(=O)CNC(=O)[C@H](C)NC1=O)C(=O)N[C@@H](CCCCN)C(=O)N[C@@H](CCC(N)=O)C(=O)N[C@@H](CC(=O)O)C(=O)N[C@@H](CO)C(=O)N[C@@H](CC(=O)O)C(=O)N2 [VEGF_CKP9.96] (H-GCKLFEPLWGCKQDSDCLAGCVCRWYESCG-OH; disulfide 2-21, 11-17, 23-29; N-terminus and C-terminus assumed)	18.4	1.2	–
